Source: paper PMC5267425, “Identification of small molecule modulators of HIV-1 Tat and Rev protein accumulation” (Retrovirology, 2017)

Test system: cellular gene expression in HeLa rtTA HIV∆Mls cells

Cc1cc(NCc2cccnc2)n2ncc(-c3ccc(Cl)cc3)c2n1 [Compound 791, 3-(4-chlorophenyl)-5-methyl-N-(3-pyridinylmethyl)pyrazolo[1,5-a]pyrimidin-7-amine]
DCAF6 expression fold change: 0.581
DCAF17 Mean fold change: 1.433
DCI expression fold change: 1.321
DCLRE1A expression fold change: 1.408
DCXR expression fold change: 1.050
DDB2 expression fold change: 1.399
DDR1 expression fold change: 0.690
DDX10 expression fold change: 1.177
DDX31 Mean fold change: 1.434
DDX50 expression fold change: 1.253
DENND4B expression fold change: 1.243
DET1 expression fold change: 1.366
DGCR2 expression fold change: 0.881
DGKQ expression fold change: 1.343
DHX35 expression fold change: 1.203
DLG4 expression fold change: 1.263
DMAP1 expression fold change: 0.891
DNAH14 Mean fold change: 1.678
DNAH17 Mean fold change: 1.839
DNAJA3 Mean fold change: 1.796
DNAJB14 expression fold change: 1.264
DNASE2 expression fold change: 1.378
DNMT3L expression fold change: 0.498
DOCK1 expression fold change: 0.758
DOCK8 expression fold change: 0.595
DPH5 Mean fold change: 1.479
DPM2 expression fold change: 1.136
DPYSL2 Mean fold change: 1.729
DSE expression fold change: 0.858
DUS4L Mean fold change: 1.822
DUSP1 expression fold change: 0.730
DUSP8 expression fold change: 0.576
DYM expression fold change: 1.260
DYNC1I2 expression fold change: 0.857
DYNLT1 expression fold change: 1.171
DYRK2 expression fold change: 1.206
EARS2 expression fold change: 1.134
ECT2 expression fold change: 0.716
EDA2R Mean fold change: 1.924
EDEM1 expression fold change: 1.273
EFCAB2 expression fold change: 1.159
EIF1 Mean fold change: 1.516
EIF2S2 Mean fold change: 1.734
EIF2S3 expression fold change: 1.243
EIF4EBP1 Mean fold change: 2.239
ELMO2 expression fold change: 1.211
ELP3 expression fold change: 1.135
EMP2 expression fold change: 0.740
ENOPH1 Mean fold change: 1.427
EPB41L2 expression fold change: 0.862
EPB41L4A expression fold change: 0.788
EPB41 Mean fold change: 1.417
EPM2AIP1 expression fold change: 1.093
EPRS expression fold change: 1.271
ERCC2 expression fold change: 0.790
ERGIC1 expression fold change: 1.185
ERICH1 expression fold change: 0.941
ERMAP Mean fold change: 1.499
ERRFI1 Mean fold change: 1.452
ESAM expression fold change: 0.673
ESCO1 expression fold change: 1.256
ESF1 expression fold change: 1.072
ESRRA expression fold change: 1.275
ESYT2 expression fold change: 0.824
ETV4 Mean fold change: 4.291
ETV6 expression fold change: 1.253
F2R expression fold change: 0.551
FAIM3 expression fold change: 1.351
FAM13B expression fold change: 0.771
FAM27E2 Mean fold change: 2.360
FAM83D expression fold change: 0.622
FAM83G expression fold change: 1.328
FAM86A Mean fold change: 1.567
FAM86B1 Mean fold change: 2.493
FAM86B2 Mean fold change: 2.843
FAM86C Mean fold change: 1.599
FAM102A expression fold change: 1.402
FAM107B expression fold change: 1.234
FAM114A1 expression fold change: 0.853
FAM119B expression fold change: 1.218
FAM127A expression fold change: 0.756
FAM133B expression fold change: 1.056
FAM176B expression fold change: 1.310
FAM179B expression fold change: 1.253
FAM192A expression fold change: 1.096
FAM195B expression fold change: 0.859
FAM199X expression fold change: 1.145
FAR1 expression fold change: 1.245
FARP1 expression fold change: 0.824
FASTKD2 expression fold change: 1.173
FBXL2 expression fold change: 0.756
FBXO22 expression fold change: 1.399
FBXO28 expression fold change: 1.101
FBXO45 Mean fold change: 1.434
FBXW4 expression fold change: 1.381
FBXW11 expression fold change: 1.080
FDFT1 expression fold change: 0.649
FECH expression fold change: 0.957
FEM1C expression fold change: 1.387
FEZ2 expression fold change: 1.355
FGFR3 expression fold change: 0.612
FLCN expression fold change: 1.383
FLII expression fold change: 0.919
FLYWCH1 expression fold change: 1.367
FOSL2 expression fold change: 1.375
FOXF1 expression fold change: 1.318
FOXJ2 expression fold change: 1.277
FOXJ3 expression fold change: 1.187
FOXN2 expression fold change: 1.082
FRAT1 expression fold change: 0.900
FSTL1 expression fold change: 0.717
FUBP1 expression fold change: 0.781
FXYD5 expression fold change: 1.215
FZR1 expression fold change: 0.784
GABARAPL2 expression fold change: 0.887
GADD45A Mean fold change: 2.491
GALNT2 expression fold change: 0.621
GATA5 expression fold change: 1.360
GATSL1 expression fold change: 0.637
GBA2 expression fold change: 1.203
GCC1 Mean fold change: 1.971
GDF15 Mean fold change: 7.775
GGA3 expression fold change: 1.172
GJD3 expression fold change: 1.295
GLCCI1 expression fold change: 0.781
GLI2 expression fold change: 0.589
GNA13 expression fold change: 1.223
GNG10 expression fold change: 0.817
GNL1 expression fold change: 1.145
GOLGA5 expression fold change: 1.153
GOLGA9P Mean fold change: 1.884
GORAB expression fold change: 1.233
GORASP1 expression fold change: 0.859
GOSR1 expression fold change: 1.352
GPC5 expression fold change: 1.250
GPCPD1 Mean fold change: 2.287
GPD1L expression fold change: 1.252
GPR176 expression fold change: 0.771
GPT2 Mean fold change: 2.731
GRAMD1C expression fold change: 1.186
GRB10 Mean fold change: 1.714
GRINL1A Mean fold change: 1.542
GRPEL2 Mean fold change: 1.903
GTF2H3 expression fold change: 1.322
GTF3C1 expression fold change: 0.813
H3F3A expression fold change: 0.746
HACL1 expression fold change: 0.803
HADHA Mean fold change: 1.441
HADHB Mean fold change: 1.600
HAUS3 expression fold change: 1.330
HAUS4 expression fold change: 1.250
HAUS6 Mean fold change: 1.910
HAX1 Mean fold change: 1.624
HDAC1 expression fold change: 0.825
HDHD2 expression fold change: 1.223
HEBP1 expression fold change: 1.199
HECTD1 expression fold change: 1.231
HEG1 expression fold change: 0.638
HIF1A expression fold change: 1.219
HINT3 expression fold change: 1.199
HIPK1 expression fold change: 1.092
HIST1H3B expression fold change: 0.670
HJURP expression fold change: 0.874
HMGB3 expression fold change: 0.753
HMGN3 expression fold change: 0.687
HNRNPH2 expression fold change: 0.704
HPS3 expression fold change: 1.235
HRSP12 expression fold change: 1.297
HSD17B1 expression fold change: 1.238
HSPA9 Mean fold change: 2.175
HSPB6 Mean fold change: 2.845
HSPB8 expression fold change: 0.812
IBTK expression fold change: 1.153
ICAM1 Mean fold change: 1.829
ICK expression fold change: 0.776
ID3 expression fold change: 0.580
IDH2 expression fold change: 0.637
IDI1 expression fold change: 0.495
IFNGR1 expression fold change: 1.224
IFRD1 Mean fold change: 2.095
IKBIP expression fold change: 0.658
IMMT expression fold change: 1.075
IMPA2 Mean fold change: 1.561
INCENP expression fold change: 0.617
INO80C expression fold change: 0.723
INPP1 expression fold change: 1.347
IPO13 expression fold change: 1.247
IQCB1 expression fold change: 1.350
ISCU Mean fold change: 1.477
ITGA5 expression fold change: 1.145
ITPKC expression fold change: 1.186
IVNS1ABP expression fold change: 1.200
JTB expression fold change: 1.203
JUB expression fold change: 0.585
KANK2 expression fold change: 0.798
KCNJ2 Mean fold change: 1.873
KCTD1 expression fold change: 1.252
KCTD13 expression fold change: 1.373
KCTD15 Mean fold change: 1.965
KCTD20 expression fold change: 1.124
KHDRBS1 expression fold change: 0.750
KHSRP expression fold change: 0.864
KIAA0232 expression fold change: 1.232
KIAA0562 expression fold change: 1.119
KIAA0649 expression fold change: 1.279
KIAA0753 expression fold change: 1.283
KIAA0895 expression fold change: 1.129
KIAA1430 expression fold change: 1.140
KIAA1826 expression fold change: 1.191
KIAA2013 expression fold change: 0.927
KIF3B expression fold change: 0.839
KIF5C expression fold change: 0.782
KIF11 expression fold change: 0.660
KIF18B expression fold change: 0.771
KIF20B expression fold change: 0.622
KIFC1 expression fold change: 0.753
KITLG expression fold change: 0.707
KLF9 expression fold change: 0.665
KLF11 Mean fold change: 1.487
KLHDC3 expression fold change: 0.728
KLHL35 Mean fold change: 1.651
KPNA2 expression fold change: 0.620
KRR1 expression fold change: 1.251
LACE1 Mean fold change: 1.553
LAPTM4B expression fold change: 0.781
LARP6 Mean fold change: 3.094
LARS expression fold change: 1.394
LASS5 expression fold change: 0.895
LGALS9 Mean fold change: 1.949
LGTN expression fold change: 1.255
LHPP Mean fold change: 1.532
LIG3 expression fold change: 1.068
LIN7B expression fold change: 1.185
LMO7 expression fold change: 0.663
LONP1 Mean fold change: 2.312
LRP5L expression fold change: 1.303
LRPPRC expression fold change: 1.312
LRRC8D Mean fold change: 1.472
LRRC16A expression fold change: 0.608
LRRC37A3 Mean fold change: 1.746
LRRC37B Mean fold change: 1.443
LRSAM1 expression fold change: 1.153
LYRM2 expression fold change: 1.176
LYSMD1 expression fold change: 1.216
LZTR1 expression fold change: 0.877
MAGT1 expression fold change: 0.903
MAK16 Mean fold change: 1.459
MAML2 expression fold change: 0.717
MANF expression fold change: 0.731
MAP1B Mean fold change: 3.550
MAP3K12 expression fold change: 1.348
MAP3K14 expression fold change: 0.532
MAP4K4 expression fold change: 0.822
